Laboratory results: US20200319201A1, “METHODS FOR MONITORING TUBERCULOSIS MEDICATION” (priority 2017, published 2020)

Assay: Liquid chromatography mass spectrometry analysis of fingerprint sweat samples for Tuberculosis medication and metabolite
Type: in vivo, human
Settings: for percentage of fingerprint samples in which detected: 75 samples; for number of fingerprint samples in which detected (of 25 fingerprints): 5 subjects who had finished a course of Isoniazid at least 72 hours previously
Procedure: All subjects from whom fingerprint samples were taken were human. Fingerprints were taken from the five fingers (i.e. the four fingers and the thumb) of each subject's right hand: • without the hand having been washed; or • after the hand has been washed with soap and water, and covered with a clean surgical glove for 10 minutes, without contacting any other surface.
The chromatography paper with fingerprint samples thereon were placed in a 2 ml Eppendorf microcentrifuge tube, following which an extraction solution (1.5 ml of 10% dichloromethane in methanol) was added. The tube was then centrifuged for 2 min (at 9.5 centrifugal force). The solvent extract was evaporated to dryness under a stream of nitrogen at room temperature (20° C.) and reconstituted in 100 μl mobile phase solution (95:5 water/acetonitrile+0.1% formic acid+iosotopically labelled internal standards) before being vortexed and transferred to a 300 μl glass micro-insert vial, with 5 μl being injected onto an LC-MS/MS system.
Chromatographic separation was performed on a Thermo Scientific™ Ultimate3000 UHPLC system equipped with a binary solvent manager, column manager and autosampler. The injection volume was 5 μL. Separation was performed on a Kinetex XB-C18 column (100×2.1 mm, 5 μm) operated at 30° C. at a flow rate of 0.25 ml/min. Mobile phase comprises 95% H2O (0.1% formic acid) and 5% acetonitrile (ACN) (0.1% formic acid).
The prepared samples were introduced to a Thermo Orbitrap Q-Exactive Plus mass spectrometer using the standard ESI interface with a capillary temperature of 320° C. and spray voltage 3 kV. Positive mass spectra were acquired in full scan mode within a range of m/z 50-500 at a mass resolution of 70 000 at m/z 200.

[1] = after washing hands using soap and water, same subjects as Example 1, isoniazid 300 mg (one 400 mg)
[2] = after washing hands using soap and water, same subjects as Example 1
[3] = hands not washed, approximately 3 hours after 300 mg isoniazid (one subject 400 mg), 15 subjects
[4] = hands not washed, approximately 3 hours after 300 mg isoniazid (one subject 400 mg)
[5] = hands washed using soap and water
[6] = sample obtained 2 hours after the subject had taken Isoniazid
[7] = sample obtained 72 hours after the subject had taken Isoniazid

SMILES	number of fingerprint samples in which detected (out of the 75 fingerprint samples) [1]	percentage of fingerprint samples in which detected [2]	number of fingerprint samples in which detected (of 25 fingerprints) (hands not washed)	number of fingerprint samples in which detected (out of the 75 fingerprint samples) [3]	percentage of fingerprint samples in which detected [4]	number of fingerprint samples in which detected (of 25 fingerprints) [5]	presence in fingerprint sweat sample [6]	presence in fingerprint sweat sample [7]	presence in fingerprint sample (approximately 3 hours after 1,000 mg pyrazinamide, hands washed)
CC(=O)NNC(=O)c1ccncc1 [Acetylisoniazid]	72	96%	0	73	97%	0	shows the presence	does not show the presence	
NNC(=O)c1ccncc1 [Isoniazid]	40	53%	0	51	68%	0	shows the presence	does not show the presence	
NC(=O)c1cnccn1 [pyrazinamide, Pyrazinamide]									presence of pyrazinamide is evidenced
